Data set [1] is described as follows: Pharmacokinetics and oral bioavailability in C3H mice, plasma levels by LC-MS. Format: in vivo. Particulars: for bioavailability: po, 10 mg/kg; for Plasma drug concentrations at higher PO dose: mice, PO 100 mg/kg in suspension, data not shown.
For another data set, the target named is HIV-1 Nef (Human immunodeficiency virus type 1 group M subtype B, UniProt P03406). Nature of the data set: SPR direct binding to immobilized recombinant Nef.
The next data set deals with HIV-1NL4-3. Description: Nef-dependent HIV-1 replication in U87MG/CD4/CXCR4 cells, p24 Gag ELISA. Format: cell-based. Particulars: 3 μM, 4 days. (In general: ELISA stands for enzyme-linked immunosorbent assay.)
The mark [2] stands for this setting: C3H, mouse, plasma, iv, 2 mg/kg.

“Also recorded” adds a separate entry of the source.

`NC(=S)n1nc(-c2ccc([N+](=O)[O-])cc2)c(/N=N/c2cccc(Cl)c2)c1O` [Compound 1] returned a half-life in data set [1] (setting [2]) greater than 2 h.
In the case of `NC(=S)n1nc(-c2ccc([N+](=O)[O-])cc2)c(CCc2cccc(Cl)c2)c1O` [Compound 2], in data set [1] (setting [2]), the AUC(0-inf) is 2470 ng·h/mL, the highest level (Cmax) was 11200 ng/mL, the Vd turned out to be 0.91 L/kg and the clearance was 15.5 mL/min/kg. In data set [1] (setting [2]), this compound had a half-life of 2.7 h. In data set [1] (C3H, mouse, plasma), this compound came in with a bioavailability of 53 to 85%. For the same compound, the “Plasma drug concentrations at higher PO dose” value in data set [1] is “proportionally higher plasma drug concentrations”. Besides, the “Reduction of binding affinity for Nef relative to B9 parent compound” value at HIV-1 Nef was 2 fold. The “Effect on Nef-dependent enhancement of HIV-1 replication” value (from here on “Effect on Nef-dependent enhancement”) in the data set on HIV-1NL4-3 was “suppressed Nef-dependent enhancement of HIV-1 replication to the same extent as B9”.
For `O=[N+]([O-])c1ccc(-c2n[nH]c(O)c2CCc2cccc(Cl)c2)cc1` [Compound 3], the “Nef binding by SPR (in words)” value at HIV-1 Nef is on record as “dramatic loss of Nef binding; also recorded: fail to bind to Nef”. Also, the “Effect on Nef-dependent enhancement” value in the data set on HIV-1NL4-3 was “no activity”.
Take `NC(=S)n1nc(-c2ccc([N+](=O)[O-])cc2)c(Cc2cccc(Cl)c2)c1O` [Compound 4]: in data set [1] (setting [2]), the AUC(0-inf) turned out to be 3890 ng·h/mL, the AUC(0-t) came to 3770 ng·h/mL, the concentration peaked (Cmax) at 3880 ng/mL and the Vd amounted to 0.95 L/kg. The same compound yielded a clearance in data set [1] (setting [2]) of 11.2 mL/min/kg. The compound also registered a bioavailability in data set [1] (C3H, mouse, plasma) of 57 to 100%. The “Plasma drug concentrations at higher PO dose” value in data set [1] was “proportionally higher plasma drug concentrations”. Further, in the data set on HIV-1NL4-3, the “Effect on Nef-dependent enhancement” value was “suppressed Nef-dependent enhancement of HIV-1 replication to the same extent as B9”.
As for `O=[N+]([O-])c1ccc(-c2n[nH]c(O)c2Cc2cccc(Cl)c2)cc1` [Compound 5], the “Nef binding by SPR (in words)” value at HIV-1 Nef is “dramatic loss of Nef binding; also recorded: fail to bind to Nef”. Further, the “Effect on Nef-dependent enhancement” value in the data set with HIV-1NL4-3 is listed as “no activity”.

For orientation: half-life means how long it takes for the measured level to halve. High values mean slow decline, low ones rapid decline. Usually AUC(0-inf) stands for the area under the concentration-time curve extrapolated to infinity. A word on the Cmax: it is the highest concentration seen after dosing. The term bioavailability denotes dose-corrected exposure relative to a reference, in per cent. Read a low bioavailability as little systemic uptake. The AUC(0-t) is exposure summed from dosing to a finite time, without extrapolation to infinity. Read a high AUC(0-t) as more exposure.

The values are drawn from article PMC4756635 (Bioorganic & medicinal chemistry letters, 2016).
